Experiments:
[1] = target: isolated smooth muscle myosin (UniProt P10587); type: biochemical, chamois; conditions: for % inhibition at 5 μM (or 10 μM if racemate) Smooth: 5 μM (10 μM if racemate); for % inhibition at 5 μM (or 10 μM if racemate) Smooth / % inhibition at 50 μM (or 100 μM if racemate) Smooth: ATPase activity; for % inhibition at 50 μM (or 100 μM if racemate) Smooth: 50 μM (100 μM if racemate); for % inhibition. complete Smooth: maximum value of inhibition of ATPase activity
[2] = tested on: isolated rabbit skeletal muscle myosin (skeletal); experiment: actomyosin steady state ATPase measurement, skeletal muscle myosin; type: biochemical; conditions: for % inhibition at 5 μM (or 10 μM if racemate) Skeletal: 5 μM (10 μM if racemate); for % inhibition at 5 μM (or 10 μM if racemate) Skeletal / % inhibition at 50 μM (or 100 μM if racemate) Skeletal: ATPase activity; for % inhibition at 50 μM (or 100 μM if racemate) Skeletal: 50 μM (100 μM if racemate); for IC50: concentration required for semi-maximal inhibition of ATPase; for % inhibition. complete Skeletal: maximum value of inhibition of ATPase activity
Source text: (§1) […]; (ii) the concentration required for semi-maximal inhibition.

[3] = target: isolated smooth muscle myosin (UniProt P10587); type: biochemical, chamois; conditions: concentration required for semi-maximal inhibition of ATPase
Source text: (ii) the concentration required for semi-maximal inhibition.

[4] = target: recombinant human non-muscle myosin 2 NM2C (Homo sapiens, UniProt Q7Z406); experiment: actomyosin steady state ATPase measurement, NM2C; type: biochemical; conditions: for IC50: concentration required for semi-maximal inhibition of ATPase; for % inhibition. complete NM2C: maximum value of inhibition of ATPase activity; for inhibition at 5 µM: read-out: % inhibition at 5 μM (or 10 μM if racemate) NM2C, 5 μM (10 μM if racemate); for inhibition at 5 µM / inhibition at 50 µM: ATPase activity; for inhibition at 50 µM: read-out: % inhibition at 50 μM (or 100 μM if racemate) NM2C, 50 μM (100 μM if racemate)
Source text: as §1

[5] = target: recombinant Dictyostelium miozin (Dictyostelium) (Dictyostelium discoideum, UniProt P08799); experiment: actomyosin steady state ATPase measurement, Dictyostelium myosin; type: biochemical; conditions: for IC50: concentration required for semi-maximal inhibition of ATPase, read-out: IC50 (μM) Dicty; for % inhibition. complete Dicty: maximum value of inhibition of ATPase activity; for inhibition at 5 µM: read-out: % inhibition at 5 μM (or 10 μM if racemate) Dicty; for inhibition at 50 µM: read-out: % inhibition at 50 μM (or 100 μM if racemate) Dicty
Source text: as §1

[6] = target: T1, isolated porcine cardiac ventricular myocardium (cardiac) (Sus scrofa, UniProt P79293); experiment: actomyosin steady state ATPase measurement, cardiac myosin; type: biochemical; conditions: for IC50: concentration required for semi-maximal inhibition of ATPase; for % inhibition. complete cardiac: maximum value of inhibition of ATPase activity; for inhibition at 5 µM: read-out: % inhibition at 5 μM (or 10 μM if racemate) cardiac, 5 μM (10 μM if racemate); for inhibition at 5 µM / inhibition at 50 µM: ATPase activity; for inhibition at 50 µM: read-out: % inhibition at 50 μM (or 100 μM if racemate) cardiac, 50 μM (100 μM if racemate)
T1 construct: isolated porcine cardiac ventricular myocardium (cardiac); from tissue; host or cells: porcine cardiac ventricle
Source text: as §1

Sequence of recombinant human non-muscle myosin 2 NM2C (Q7Z406 whole entry): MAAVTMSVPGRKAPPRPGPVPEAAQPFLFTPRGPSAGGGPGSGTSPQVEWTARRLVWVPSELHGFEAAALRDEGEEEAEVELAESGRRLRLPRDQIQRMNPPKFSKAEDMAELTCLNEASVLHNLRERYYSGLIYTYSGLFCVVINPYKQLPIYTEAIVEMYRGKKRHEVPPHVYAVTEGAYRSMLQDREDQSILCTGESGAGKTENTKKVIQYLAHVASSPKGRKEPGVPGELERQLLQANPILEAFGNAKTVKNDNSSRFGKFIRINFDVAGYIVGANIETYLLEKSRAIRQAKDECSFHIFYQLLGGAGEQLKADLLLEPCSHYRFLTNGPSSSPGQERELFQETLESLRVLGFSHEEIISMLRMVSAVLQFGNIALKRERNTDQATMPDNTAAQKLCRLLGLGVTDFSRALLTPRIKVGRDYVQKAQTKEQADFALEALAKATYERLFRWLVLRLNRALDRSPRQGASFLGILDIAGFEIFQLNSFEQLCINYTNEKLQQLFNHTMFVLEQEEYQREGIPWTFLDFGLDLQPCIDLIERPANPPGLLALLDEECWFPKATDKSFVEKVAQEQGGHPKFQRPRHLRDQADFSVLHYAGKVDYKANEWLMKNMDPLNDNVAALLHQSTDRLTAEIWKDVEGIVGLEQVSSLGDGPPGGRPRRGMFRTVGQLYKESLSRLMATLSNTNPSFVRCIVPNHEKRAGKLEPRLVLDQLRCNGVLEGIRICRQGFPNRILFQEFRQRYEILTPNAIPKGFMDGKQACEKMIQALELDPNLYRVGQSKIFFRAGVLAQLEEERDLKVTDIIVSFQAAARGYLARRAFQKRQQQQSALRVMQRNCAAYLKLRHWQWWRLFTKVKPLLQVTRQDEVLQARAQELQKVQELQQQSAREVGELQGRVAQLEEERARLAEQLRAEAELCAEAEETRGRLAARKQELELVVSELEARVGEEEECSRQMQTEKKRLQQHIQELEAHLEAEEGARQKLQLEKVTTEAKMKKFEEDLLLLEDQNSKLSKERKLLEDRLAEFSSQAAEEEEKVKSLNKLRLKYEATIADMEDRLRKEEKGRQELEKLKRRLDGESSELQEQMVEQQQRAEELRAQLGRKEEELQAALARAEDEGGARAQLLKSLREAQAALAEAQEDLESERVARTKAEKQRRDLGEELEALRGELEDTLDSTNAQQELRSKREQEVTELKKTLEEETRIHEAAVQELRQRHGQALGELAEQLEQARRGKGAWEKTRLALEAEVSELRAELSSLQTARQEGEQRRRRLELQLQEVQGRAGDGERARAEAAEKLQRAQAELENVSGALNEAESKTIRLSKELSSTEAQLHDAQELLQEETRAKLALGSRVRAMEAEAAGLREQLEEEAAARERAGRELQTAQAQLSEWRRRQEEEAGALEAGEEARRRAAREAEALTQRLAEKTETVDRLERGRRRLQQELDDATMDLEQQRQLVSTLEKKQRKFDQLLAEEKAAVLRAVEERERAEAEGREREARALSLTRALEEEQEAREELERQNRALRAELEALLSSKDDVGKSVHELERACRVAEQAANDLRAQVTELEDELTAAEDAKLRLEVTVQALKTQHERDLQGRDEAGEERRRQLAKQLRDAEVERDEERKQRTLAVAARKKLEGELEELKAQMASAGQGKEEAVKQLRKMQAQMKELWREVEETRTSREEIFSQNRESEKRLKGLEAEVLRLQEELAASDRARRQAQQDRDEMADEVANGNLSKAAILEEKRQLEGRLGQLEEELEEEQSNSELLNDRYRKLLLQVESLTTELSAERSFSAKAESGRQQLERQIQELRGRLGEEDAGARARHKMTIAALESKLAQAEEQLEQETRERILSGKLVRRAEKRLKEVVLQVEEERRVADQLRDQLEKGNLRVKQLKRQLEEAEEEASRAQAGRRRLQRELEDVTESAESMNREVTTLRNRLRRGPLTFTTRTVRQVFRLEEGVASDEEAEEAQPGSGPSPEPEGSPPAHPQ
Sequence of isolated smooth muscle myosin (P10587 whole entry): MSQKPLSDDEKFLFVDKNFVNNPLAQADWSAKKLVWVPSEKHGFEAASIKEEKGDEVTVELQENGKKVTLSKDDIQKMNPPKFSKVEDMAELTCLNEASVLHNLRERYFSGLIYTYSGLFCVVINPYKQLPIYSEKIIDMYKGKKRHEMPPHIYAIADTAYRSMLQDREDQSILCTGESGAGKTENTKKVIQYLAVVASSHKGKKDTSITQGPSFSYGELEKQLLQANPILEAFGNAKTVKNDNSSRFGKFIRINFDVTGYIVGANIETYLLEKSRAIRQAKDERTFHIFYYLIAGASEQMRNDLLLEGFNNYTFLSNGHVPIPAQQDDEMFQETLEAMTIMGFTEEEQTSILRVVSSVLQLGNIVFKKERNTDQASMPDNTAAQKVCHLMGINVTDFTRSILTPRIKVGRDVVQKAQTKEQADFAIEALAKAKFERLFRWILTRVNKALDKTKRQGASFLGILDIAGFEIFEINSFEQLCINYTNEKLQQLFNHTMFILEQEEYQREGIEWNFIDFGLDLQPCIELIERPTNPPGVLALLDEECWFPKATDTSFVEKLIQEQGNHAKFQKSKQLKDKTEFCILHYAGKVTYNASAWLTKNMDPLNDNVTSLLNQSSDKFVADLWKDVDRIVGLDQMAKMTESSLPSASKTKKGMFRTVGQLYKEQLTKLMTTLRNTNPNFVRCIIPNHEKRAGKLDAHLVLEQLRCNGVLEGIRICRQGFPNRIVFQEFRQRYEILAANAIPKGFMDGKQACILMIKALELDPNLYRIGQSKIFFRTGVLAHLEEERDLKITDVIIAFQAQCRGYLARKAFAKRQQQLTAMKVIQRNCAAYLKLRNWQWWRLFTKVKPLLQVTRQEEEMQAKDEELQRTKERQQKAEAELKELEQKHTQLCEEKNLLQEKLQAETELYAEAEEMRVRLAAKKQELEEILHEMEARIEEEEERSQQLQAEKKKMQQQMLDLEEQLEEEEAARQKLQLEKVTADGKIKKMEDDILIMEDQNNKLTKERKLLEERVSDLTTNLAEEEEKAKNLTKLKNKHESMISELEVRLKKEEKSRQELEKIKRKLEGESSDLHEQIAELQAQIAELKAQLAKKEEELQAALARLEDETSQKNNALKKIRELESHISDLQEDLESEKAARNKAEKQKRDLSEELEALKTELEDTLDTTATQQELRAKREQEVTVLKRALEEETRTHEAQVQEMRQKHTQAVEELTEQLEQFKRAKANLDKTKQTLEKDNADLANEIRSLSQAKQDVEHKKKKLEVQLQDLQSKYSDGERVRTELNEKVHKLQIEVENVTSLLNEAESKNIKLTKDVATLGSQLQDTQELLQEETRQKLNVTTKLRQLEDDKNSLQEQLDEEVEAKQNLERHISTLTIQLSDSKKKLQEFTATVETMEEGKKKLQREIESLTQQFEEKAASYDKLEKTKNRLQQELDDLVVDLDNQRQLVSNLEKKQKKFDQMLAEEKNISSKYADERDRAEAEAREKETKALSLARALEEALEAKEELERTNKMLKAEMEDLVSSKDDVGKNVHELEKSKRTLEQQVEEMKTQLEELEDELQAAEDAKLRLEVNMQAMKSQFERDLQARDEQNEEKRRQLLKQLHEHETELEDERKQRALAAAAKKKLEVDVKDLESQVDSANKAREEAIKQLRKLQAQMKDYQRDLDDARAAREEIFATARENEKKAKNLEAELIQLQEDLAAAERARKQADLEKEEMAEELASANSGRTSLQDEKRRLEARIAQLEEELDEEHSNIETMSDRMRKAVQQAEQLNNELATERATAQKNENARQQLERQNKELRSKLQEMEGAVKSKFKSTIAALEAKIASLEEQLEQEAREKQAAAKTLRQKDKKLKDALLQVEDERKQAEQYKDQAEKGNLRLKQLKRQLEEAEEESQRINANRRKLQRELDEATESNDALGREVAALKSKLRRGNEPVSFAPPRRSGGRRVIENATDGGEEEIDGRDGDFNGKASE

**Q.** Which “% inhibition at 5 μM (or 10 μM if racemate) Smooth” value [1] does the source give for `O=C1c2ccsc2N=C2N(c3cccs3)CC[C@@]12O` [Compound 218, (9S)-9-Hydroxy-12-(thiophen-2-yl)-4-thia-2,12-diazatricyclo[7.3.0.0^3,7]dodeca-1,3(7),5-trien-8-one] here?
**A.** 10%

**Q.** What about the “% inhibition at 50 μM (or 100 μM if racemate) Smooth” value [1] of the same molecule?
**A.** 24%

**Q.** What about the “% inhibition. complete Smooth” value [1] of the same molecule?
**A.** 28%

**Q.** And the “% inhibition at 5 μM (or 10 μM if racemate) Skeletal” value [2]?
**A.** 50%

**Q.** What about the “% inhibition at 50 μM (or 100 μM if racemate) Skeletal” value [2] of the same molecule?
**A.** 85%

**Q.** And the IC50 [2]?
**A.** 4.2 µM

**Q.** What about the “% inhibition. complete Skeletal” value [2] of the same molecule?
**A.** 92%

**Q.** And the IC50 [3]?
**A.** 8.1 µM

**Q.** What about the IC50 [4] of the same molecule?
**A.** 44 µM

**Q.** What about the “% inhibition. complete NM2C” value [4] of the same molecule?
**A.** 20%

**Q.** And the inhibition at 5 µM [4]?
**A.** 2%

**Q.** And the inhibition at 50 µM [4]?
**A.** 11%

**Q.** And the IC50 [5]?
**A.** 78 µM

**Q.** And the “% inhibition. complete Dicty” value [5]?
**A.** 100%

**Q.** And the inhibition at 5 µM [5]?
**A.** 4%

**Q.** What about the inhibition at 50 µM [5] of the same molecule?
**A.** 39%

**Q.** And the IC50 [6]?
**A.** 2.7 µM

**Q.** What about the “% inhibition. complete cardiac” value [6] of the same molecule?
**A.** 79%

**Q.** And the inhibition at 5 µM [6]?
**A.** 49%

**Q.** And the inhibition at 50 µM [6]?
**A.** 75%

**Q.** For `COc1ccc(N2CCC3(O)C(=O)c4cc(C)sc4N=C23)cc1` (stereo not shown) [Compound 222, 9-Hydroxy-12-(4-methoxyphenyl)-5-methyl-4-thia-2,12-diazatricyclo[7.3.0.0^3,7]dodeca-1,3(7),5-trien-8-one], which “% inhibition at 5 μM (or 10 μM if racemate) Smooth” value [1] is on record?
**A.** 83%

**Q.** What about the “% inhibition at 50 μM (or 100 μM if racemate) Smooth” value [1] of the same molecule?
**A.** 97%

**Q.** What about the “% inhibition. complete Smooth” value [1] of the same molecule?
**A.** 98%

**Q.** What about the “% inhibition at 5 μM (or 10 μM if racemate) Skeletal” value [2] of the same molecule?
**A.** 92%

**Q.** What about the “% inhibition at 50 μM (or 100 μM if racemate) Skeletal” value [2] of the same molecule?
**A.** 95%

**Q.** And the IC50 [2]?
**A.** 0.11 µM

**Q.** And the “% inhibition. complete Skeletal” value [2]?
**A.** 95%

**Q.** What about the IC50 [3] of the same molecule?
**A.** 0.86 µM

**Q.** What about the IC50 [4] of the same molecule?
**A.** 0.76 µM

**Q.** And the “% inhibition. complete NM2C” value [4]?
**A.** 91%

**Q.** What about the inhibition at 5 µM [4] of the same molecule?
**A.** 77%

**Q.** And the inhibition at 50 µM [4]?
**A.** 89%

**Q.** What about the IC50 [5] of the same molecule?
**A.** 4.7 µM

**Q.** And the “% inhibition. complete Dicty” value [5]?
**A.** 100%

**Q.** And the inhibition at 5 µM [5]?
**A.** 49%

**Q.** What about the inhibition at 50 µM [5] of the same molecule?
**A.** 99%

**Q.** What about the IC50 [6] of the same molecule?
**A.** 0.52 µM

**Q.** And the “% inhibition. complete cardiac” value [6]?
**A.** 93%

**Q.** What about the inhibition at 5 µM [6] of the same molecule?
**A.** 82%

**Q.** And the inhibition at 50 µM [6]?
**A.** 92%

**Q.** How did the “% inhibition at 5 μM (or 10 μM if racemate) Smooth” value [1] turn out when `O=C1c2ccsc2N=C2N(c3ccc(OC(F)(F)F)cc3)CC[C@@]12O` [Compound 212, (9S)-9-hydroxy-12-[4-(trifluoromethoxy)phenyl]-4-thia-2,12-diazatricyclo[7.3.0.0^3,7]dodeca-1,3(7),5-trien-8-one] was run?
**A.** 24%

**Q.** And the “% inhibition at 50 μM (or 100 μM if racemate) Smooth” value [1]?
**A.** 61%

**Q.** What about the “% inhibition. complete Smooth” value [1] of the same molecule?
**A.** 74%

**Q.** And the “% inhibition at 5 μM (or 10 μM if racemate) Skeletal” value [2]?
**A.** 94%

**Q.** And the “% inhibition at 50 μM (or 100 μM if racemate) Skeletal” value [2]?
**A.** 97%

**Q.** What about the IC50 [2] of the same molecule?
**A.** 0.19 µM

**Q.** What about the “% inhibition. complete Skeletal” value [2] of the same molecule?
**A.** 98%

**Q.** What about the IC50 [3] of the same molecule?
**A.** 10.4 µM

**Q.** And the IC50 [4]?
**A.** 6.4 µM

**Q.** What about the “% inhibition. complete NM2C” value [4] of the same molecule?
**A.** 61%

**Q.** And the inhibition at 5 µM [4]?
**A.** 19%

**Q.** What about the inhibition at 50 µM [4] of the same molecule?
**A.** 56%

**Q.** What about the IC50 [5] of the same molecule?
**A.** 10.9 µM

**Q.** And the “Inhibition (%) Dicty” value ([5]; maximum inhibition, compounds in IC50 range 1-11 μM)?
**A.** 84%

**Q.** What about the “% inhibition. complete Dicty” value [5] of the same molecule?
**A.** 84%

**Q.** And the inhibition at 5 µM [5]?
**A.** 26%

**Q.** And the inhibition at 50 µM [5]?
**A.** 69%

**Q.** And the IC50 [6]?
**A.** 5.9 µM

**Q.** What about the “% inhibition. complete cardiac” value [6] of the same molecule?
**A.** 100%

**Q.** And the inhibition at 5 µM [6]?
**A.** 43%

**Q.** And the inhibition at 50 µM [6]?
**A.** 93%

**Q.** For `Cc1cc2c(s1)N=C1N(c3cccs3)CCC1(O)C2=O` (stereo not shown) [Compound 229, 9-Hydroxy-5-methyl-12-(thiophen-2-yl)-4-thia-2,12-diazatricyclo[7.3.0.0^3,7]dodeca-1,3(7),5-trien-8-one], which “% inhibition at 5 μM (or 10 μM if racemate) Smooth” value [1] is on record?
**A.** 54%

**Q.** What about the “% inhibition at 50 μM (or 100 μM if racemate) Smooth” value [1] of the same molecule?
**A.** 87%

**Q.** And the “Inhibition (%) smooth” value ([1]; maximum inhibition, compounds in IC50 range 1-5 μM)?
**A.** 93%

**Q.** What about the “% inhibition. complete Smooth” value [1] of the same molecule?
**A.** 93%

**Q.** What about the “% inhibition at 5 μM (or 10 μM if racemate) Skeletal” value [2] of the same molecule?
**A.** 87%

**Q.** And the “% inhibition at 50 μM (or 100 μM if racemate) Skeletal” value [2]?
**A.** 96%

**Q.** What about the IC50 [2] of the same molecule?
**A.** 0.61 µM

**Q.** What about the “% inhibition. complete Skeletal” value [2] of the same molecule?
**A.** 97%

**Q.** And the IC50 [3]?
**A.** 3.4 µM

**Q.** And the IC50 [4]?
**A.** 1.1 µM

**Q.** And the “% inhibition. complete NM2C” value [4]?
**A.** 100%

**Q.** And the inhibition at 5 µM [4]?
**A.** 78%

**Q.** And the inhibition at 50 µM [4]?
**A.** 98%

**Q.** What about the IC50 [5] of the same molecule?
**A.** 1.4 µM

**Q.** And the “% inhibition. complete Dicty” value [5]?
**A.** 97%

**Q.** And the inhibition at 5 µM [5]?
**A.** 74%

**Q.** What about the inhibition at 50 µM [5] of the same molecule?
**A.** 95%

**Q.** And the IC50 [6]?
**A.** 1.4 µM

**Q.** What about the “% inhibition. complete cardiac” value [6] of the same molecule?
**A.** 93%

**Q.** And the inhibition at 5 µM [6]?
**A.** 54%

**Q.** What about the inhibition at 50 µM [6] of the same molecule?
**A.** 87%
